Patent publication US11884671B2, “Purinone compounds and their use in treating cancer” (ASTRAZENECA AB, priority 2018, dated 2024)

Legend:
DNAPK = DNAPK (Homo sapiens (Human), UniProt P78527); assay: DNAPK cellular potency assay (DNA-PK cell), pS2056-DNAPK ELISA in irradiated A549 cells; format: cell-based; settings: 8 Gy radiation, arithmetic mean of two or more experiments, read-out: DNA-PK cell pIC50 (converted)
Protocol: The DNAPK cell ELISA assay was performed in the A549 cell line. A549 cells were cultured in cell media composed of MEM-F12 (Minimum Essential Medium F12 Sigma #D6421), 10% (v/v) Foetal Calf Serum and 1% (v/v) 200 mM L-Glutamine. […] The following day the Greiner ELISA plates were washed 3× with PBS-T and blocked with 3% BSA/PBS for 2 h, before a further 3× wash with PBS-T.
The cell plates were then incubated for 1 h at 37° C. before receiving a radiation dose of 8 Gy (XRAD 320, table height 65). The cells were incubated for a further 1 h before removal of cell media. […] Cell lysates ([…]) were transferred to the DNAPK antibody-coated ELISA plates using a CyBio Felix liquid handling platform, and ELISA plates were incubated at 4° C. overnight.
The following day, ELISA plates were washed 3× with PBS-T and dispensed with in-house pS2056-DNAPK antibody (0.5 μg/mL in 3% BSA/PBS) at 20 ul/well.
The fluorescence intensity of individual wells was determined using a PerkinElmer EnVision plate reader.
Data was analysed and IC50 values were calculated using Genedata Screener® software (Genedata, Inc., Basel, Switzerland).

JAK1 = JAK1 (Homo sapiens (Human), UniProt P23458); assay: JAK1 enzyme assay (Z'-LYTE); format: biochemical; settings: 75 μM ATP, arithmetic mean of two or more experiments; for IC50: read-out: JAK1 enz pIC50 (converted)
Chain of JAK1 (P23458 whole entry): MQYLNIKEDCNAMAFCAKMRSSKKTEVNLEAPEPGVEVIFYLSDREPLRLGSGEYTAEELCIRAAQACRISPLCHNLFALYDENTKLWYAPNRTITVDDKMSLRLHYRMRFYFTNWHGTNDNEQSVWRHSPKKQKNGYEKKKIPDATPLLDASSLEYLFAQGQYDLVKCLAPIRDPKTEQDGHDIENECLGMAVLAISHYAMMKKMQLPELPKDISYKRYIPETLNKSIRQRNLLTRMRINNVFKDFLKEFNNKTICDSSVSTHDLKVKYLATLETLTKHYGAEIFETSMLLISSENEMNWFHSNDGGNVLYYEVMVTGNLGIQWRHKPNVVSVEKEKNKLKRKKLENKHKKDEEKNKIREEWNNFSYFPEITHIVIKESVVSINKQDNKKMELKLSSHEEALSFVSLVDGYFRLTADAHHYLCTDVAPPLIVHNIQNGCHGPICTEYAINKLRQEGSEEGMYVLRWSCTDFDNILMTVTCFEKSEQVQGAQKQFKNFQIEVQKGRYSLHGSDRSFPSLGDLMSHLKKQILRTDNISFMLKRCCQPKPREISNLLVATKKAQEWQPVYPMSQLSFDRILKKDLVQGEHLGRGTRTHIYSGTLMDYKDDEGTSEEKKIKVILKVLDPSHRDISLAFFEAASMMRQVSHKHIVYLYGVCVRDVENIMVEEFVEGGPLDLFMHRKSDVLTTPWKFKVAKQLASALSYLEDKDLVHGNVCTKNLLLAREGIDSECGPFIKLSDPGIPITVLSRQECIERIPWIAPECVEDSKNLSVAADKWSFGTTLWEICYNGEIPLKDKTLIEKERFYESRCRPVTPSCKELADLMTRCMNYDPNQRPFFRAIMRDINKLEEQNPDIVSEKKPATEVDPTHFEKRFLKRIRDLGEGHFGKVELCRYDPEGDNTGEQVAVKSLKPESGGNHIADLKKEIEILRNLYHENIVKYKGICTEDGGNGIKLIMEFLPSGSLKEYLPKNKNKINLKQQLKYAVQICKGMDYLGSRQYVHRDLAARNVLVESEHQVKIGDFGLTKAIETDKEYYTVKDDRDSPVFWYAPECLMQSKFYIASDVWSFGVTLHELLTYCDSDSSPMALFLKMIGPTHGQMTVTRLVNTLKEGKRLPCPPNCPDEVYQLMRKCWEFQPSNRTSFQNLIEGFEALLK
Protocol: (§1) The inhibitory activity of compounds against AURKA, AURKB, JAK1, JAK2 and JAK3 was determined in Z′-LYTE® assays run by ThermoFisher Scientific as part of their SelectScreen® Biochemical Kinase Profiling Service. The Z′-LYTE® biochemical assay format employs a fluorescence-based, coupled-enzyme format and is based on the differential sensitivity of phosphorylated and non-phosphorylated peptides to proteolytic cleavage. The peptide substrate is labeled with two fluorophores—one at each end—that make up a FRET pair. In the primary reaction, the kinase transfers the gamma-phosphate of ATP to a single tyrosine, serine or threonine residue in a synthetic FRET-peptide. In the secondary reaction, a site-specific protease recognises and cleaves non-phosphorylated FRET-peptides. Phosphorylation of FRET-peptides suppresses cleavage by the Development Reagent. Cleavage disrupts FRET between the donor (i.e., coumarin) and acceptor (i.e., fluorescein) fluorophores on the FRET-peptide, whereas uncleaved, phosphorylated FRET-peptides maintain FRET. A ratiometric method, which calculates the ratio (the Emission Ratio) of donor emission to acceptor emission after excitation of the donor fluorophore at 400 nm, is used to quantitate reaction progress. Both cleaved and uncleaved FRET-peptides contribute to the fluorescence signals and therefore to the Emission Ratio. The extent of phosphorylation of the FRET-peptide can be calculated from the Emission Ratio.
(§2) 10 point three-fold dilution compound concentration-response curves, with a top concentration of 10 μM were generated from 10 mM stocks of compound solubilised in DMSO. All assays were performed in black, non-binding, low volume Corning 384-well plates (cat. #4514, Corning), in a total reaction volume of 10 μL and 1% (v/v) final DMSO concentration. […] The kinase reaction was then quenched by the addition of 5 μL of Development Reagent (ThermoFisher Scientific proprietary). […] IC50 values were calculated using XLfit software (IDBS Ltd, Surrey, UK), with the curve fit to model number 205 (sigmoidal dose-response model).
JAK1: The 2×JAK/Tyr 06 (ThermoFisher Scientific proprietary) mixture was prepared in 50 mM HEPES pH 6.5, 0.01% BRIJ-35, 10 mM MgCl2, 1 mM EGTA, 0.02% NaN3. […] After the 1 hour Kinase Reaction incubation, 5 μL of a 1:128 dilution of Development Reagent was added.

JAK2 = JAK2 (Homo sapiens (Human), UniProt O60674); assay: JAK2 enzyme assay (Z'-LYTE); format: biochemical; settings: 25 μM ATP, arithmetic mean of two or more experiments; for IC50: read-out: JAK2 enz pIC50 (converted)
Chain of JAK2 (O60674 whole entry): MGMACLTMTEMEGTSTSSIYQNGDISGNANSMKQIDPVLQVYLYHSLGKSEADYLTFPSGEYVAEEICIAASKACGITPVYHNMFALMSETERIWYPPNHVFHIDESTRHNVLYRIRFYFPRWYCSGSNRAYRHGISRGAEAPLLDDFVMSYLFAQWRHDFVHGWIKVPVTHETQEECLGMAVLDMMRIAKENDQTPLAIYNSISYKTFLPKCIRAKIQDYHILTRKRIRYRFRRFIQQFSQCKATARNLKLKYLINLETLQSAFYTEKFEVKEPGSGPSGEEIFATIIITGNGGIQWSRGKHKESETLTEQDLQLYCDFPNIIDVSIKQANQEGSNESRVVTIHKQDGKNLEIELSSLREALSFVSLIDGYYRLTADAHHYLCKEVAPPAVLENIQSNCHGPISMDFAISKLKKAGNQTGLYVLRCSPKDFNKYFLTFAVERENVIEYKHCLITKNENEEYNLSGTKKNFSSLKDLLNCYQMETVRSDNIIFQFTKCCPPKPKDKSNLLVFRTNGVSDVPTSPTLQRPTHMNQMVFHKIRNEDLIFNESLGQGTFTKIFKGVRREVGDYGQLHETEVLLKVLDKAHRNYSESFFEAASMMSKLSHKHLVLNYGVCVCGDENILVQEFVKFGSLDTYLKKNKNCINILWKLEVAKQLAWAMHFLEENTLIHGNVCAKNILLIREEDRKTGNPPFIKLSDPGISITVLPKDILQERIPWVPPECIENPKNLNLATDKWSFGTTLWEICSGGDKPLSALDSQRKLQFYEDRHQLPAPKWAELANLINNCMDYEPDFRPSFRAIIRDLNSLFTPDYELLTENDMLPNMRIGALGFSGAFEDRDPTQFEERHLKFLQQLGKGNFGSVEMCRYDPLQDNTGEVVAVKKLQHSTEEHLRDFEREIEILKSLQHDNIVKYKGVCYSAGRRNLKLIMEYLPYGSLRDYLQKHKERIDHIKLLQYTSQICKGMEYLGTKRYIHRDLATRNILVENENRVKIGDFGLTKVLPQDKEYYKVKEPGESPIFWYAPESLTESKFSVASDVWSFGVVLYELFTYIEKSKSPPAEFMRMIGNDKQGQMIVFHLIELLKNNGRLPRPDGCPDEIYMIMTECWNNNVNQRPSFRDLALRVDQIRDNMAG
Protocol: as §1, §2
JAK2: The 2×JAK2/Tyr 06 (ThermoFisher Scientific proprietary) mixture was prepared in 50 mM HEPES pH 7.5, 0.01% BRIJ-35, 10 mM MgCl2, 1 mM EGTA. […] After the 1 hour Kinase Reaction incubation, 5 μL of a 1:128 dilution of Development Reagent was added.

Structure (SMILES) | IC50 (DNAPK) [nM] | JAK1 enz pIC50 (JAK1) | JAK2 enz pIC50 (JAK2) | IC50 (JAK1) [nM] | IC50 (JAK2) [nM]
Cc1cc2nccnc2cc1Nc1ncc2c(n1)n([C@@H]1CCCOC1)c(=O)n2C [Example 26, (R)-7-methyl-2-((7-methylquinoxalin-6-yl)amino)-9-(tetrahydro-2H-pyran-3-yl)-7,9-dihydro-8H-purin-8-one] | 39.8 | <5 | <5 | – | –
Cc1cc2nnccc2cc1Nc1ncc2c(n1)n([C@H]1CCCOC1)c(=O)n2C [Example 27, (S)-7-methyl-2-((7-methylcinnolin-6-yl)amino)-9-(tetrahydro-2H-pyran-3-yl)-7,9-dihydro-8H-purin-8-one] | 12.6 | <5 | <5 | – | –
Cc1cc2nccnc2cc1Nc1ncc2c(n1)n([C@H]1CCCOC1)c(=O)n2C [Example 28, (S)-7-methyl-2-((7-methylquinoxalin-6-yl)amino)-9-(tetrahydro-2H-pyran-3-yl)-7,9-dihydro-8H-purin-8-one] | 15.8 | <5 | <5 | – | –
Cc1cnc2cc(Nc3ncc4c(n3)n(C3CCOCC3)c(=O)n4C)c(C)cc2n1 [Example 33, 2-((2,7-dimethylquinoxalin-6-yl)amino)-7-methyl-9-(tetrahydro-2H-pyran-4-yl)-7,9-dihydro-8H-purin-8-one] | 126 | – | – | > 10000 | > 10000
Cc1cnc2cc(C)c(Nc3ncc4c(n3)n(C3CCOCC3)c(=O)n4C)cc2n1 [Example 34, 2-((3,7-dimethylquinoxalin-6-yl)amino)-7-methyl-9-(tetrahydro-2H-pyran-4-yl)-7,9-dihydro-8H-purin-8-one] | 31.6 | – | – | > 10000 | > 10000
Cc1cc2ncccc2cc1Nc1ncc2c(n1)n(C1CCS(=O)(=O)CC1)c(=O)n2C [Example 35, 9-(1,1-dioxidotetrahydro-2H-thiopyran-4-yl)-7-methyl-2-((7-methylquinolin-6-yl)amino)-7,9-dihydro-8H-purin-8-one] | 39.8 | <5 | <5 | – | –
Cc1cc2ncccc2cc1Nc1ncc2c(n1)n(C1COC1)c(=O)n2C [Example 36, 7-methyl-2-((7-methylquinolin-6-yl)amino)-9-(oxetan-3-yl)-7,9-dihydro-8H-purin-8-one] | 31.6 | <5 | <5.1 | – | –
Cc1cc2ncccc2cc1Nc1ncc2c(n1)n([C@@H]1CCNC[C@@H]1F)c(=O)n2C [Example 38, 9-((3S,4R)-3-fluoropiperidin-4-yl)-7-methyl-2-((7-methylquinolin-6-yl)amino)-7,9-dihydro-8H-purin-8-one] | 3160 | <5 | <5 | – | –
Cc1cc2ncccc2cc1Nc1ncc2c(n1)n([C@H]1CC[C@@](C)(N)CC1)c(=O)n2C [Example 39, 9-((1s,4s)-4-amino-4-methylcyclohexyl)-7-methyl-2-((7-methylquinolin-6-yl)amino)-7,9-dihydro-8H-purin-8-one] | 79.4 | – | – | > 10000 | > 10000
Cc1cc2ncccc2cc1Nc1ncc2c(n1)n([C@H]1CC[C@](C)(N)CC1)c(=O)n2C [Example 40, 9-((1r,4r)-4-amino-4-methylcyclohexyl)-7-methyl-2-((7-methylquinolin-6-yl)amino)-7,9-dihydro-8H-purin-8-one] | 158 | – | – | > 10000 | > 10000
Cc1cc2ncccc2cc1Nc1ncc2c(n1)n([C@@H]1CCN(C)C[C@@H]1F)c(=O)n2C [Example 46, 9-((3S,4R)-3-fluoro-1-methylpiperidin-4-yl)-7-methyl-2-((7-methylquinolin-6-yl)amino)-7,9-dihydro-8H-purin-8-one] | 631 | <5 | <5 | – | –
Cc1cc2ncccc2cc1Nc1ncc2c(n1)n(C1CCN(C3COC3)CC1)c(=O)n2C [Example 47, 7-methyl-2-((7-methylquinolin-6-yl)amino)-9-(1-(oxetan-3-yl)piperidin-4-yl)-7,9-dihydro-8H-purin-8-one] | 200 | <5 | <5 | – | –
Cc1cc2ncccc2cc1Nc1ncc2c(n1)n(C1CCN(CCO)CC1)c(=O)n2C [Example 48, 9-(1-(2-hydroxyethyl)piperidin-4-yl)-7-methyl-2-((7-methylquinolin-6-yl)amino)-7,9-dihydro-8H-purin-8-one] | 316 | <5 | <5 | – | –
COCCN1CCC(n2c(=O)n(C)c3cnc(Nc4cc5cccnc5cc4C)nc32)CC1 [Example 49, 9-(1-(2-methoxyethyl)piperidin-4-yl)-7-methyl-2-((7-methylquinolin-6-yl)amino)-7,9-dihydro-8H-purin-8-one] | 251 | <5 | <5 | – | –
CCN1CCC(n2c(=O)n(C)c3cnc(Nc4cc5cccnc5cc4C)nc32)CC1 [Example 50, 9-(1-ethylpiperidin-4-yl)-7-methyl-2-((7-methylquinolin-6-yl)amino)-7,9-dihydro-8H-purin-8-one] | 398 | <5 | <5 | – | –
CC(=O)N1CCC(n2c(=O)n(C)c3cnc(Nc4cc5cccnc5cc4C)nc32)CC1 [Example 51, 9-(1-acetylpiperidin-4-yl)-7-methyl-2-((7-methylquinolin-6-yl)amino)-7,9-dihydro-8H-purin-8-one] | 12.6 | <5 | <5 | – | –
